# Source: patent US20110251247A1, “SUBSTITUTED ISOXAZOLINE DERIVATIVES” (PFIZER INC., priority 2010, published 2011)
# Tests used:
# Type in all cases: in vivo
# [1] = tested on: Flea (Ctenocephalides felis); test: Flea (Ctenocephalides felis) Membrane Feed Assay-Adult; details: adult fleas fed on treated citrated bovine blood for approximately 2 hours; knockdown and/or death at approximately 2 and 24 hours
# Description: Flea (Ctenocephalides felis) Membrane Feed Assay-Adult
# Formula (1) compounds were dissolved in DMSO and aliquots were added to citrated bovine blood in a membrane covered Petri dish pre-warmed to 37° C. Feeding tubes containing approximately 30-35 adult fleas were placed onto the Petri dishes. The fleas were allowed to feed for approximately 2 hours. […] Endpoint data were recorded as an efficacious dose 80% (ED^80) in μg/mL.
# [2] = tested on: Horn Fly (Haematobia irritans); test: Horn Fly (Haematobia irritans) Feed Assay; details: horn flies fed on treated citrated bovine blood; knockdown and mortality at approximately 2 and 24 hours
# Description: Horn Fly (Haematobia irritans) Feed Assay
# Formula (1) compounds were dissolved in DMSO and aliquots were added to citrated bovine blood in a membrane covered Petri dish. Approximately ten horn flies were placed onto each Petri dish and covered. The flies were allowed to feed on the treated blood cell. Flies were held at approximately 80° F. with a minimum of approximately 50% relative humidity. Flies were examined for knockdown and mortality at approximately 2 and 24 hours. Endpoint data were recorded as a lethal dose 90% (LD^90) in μg/mL.
# [3] = tested on: Hard Tick Larvae (Rhipicephalus sanquineus); test: Hard Tick Larvae (Rhipicephalus sanquineus) Whole Organism Contact Assay; details: tick larvae in coated vials; knockdown examined at approximately 24 and 48 hours
# Description: Hard Tick Larvae (Rhipicephalus sanquineus) Whole Organism Contact Assay
# Formula (1) compounds were dissolved in isopropyl alcohol (IPA) and aliquots were added to vials placed on a roller for at least 2 hours to allow the IPA to evaporate. IPA alone was used as a negative control and fipronil was used as a positive control. Approximately 50-200 tick larvae were added to the vials using a swab and the vials were closed. At approximately 24 and 48 hours, the vials were examined and knockdown was recorded as active. Vials showing knockdown were examined for tick paralysis and/or death at approximately 48 hrs. Endpoint data can be recorded as an effective dose 100% (ED^100) and/or a lethal dose 100% (LD^100) in μg/cm^2.
smiles,measurement,setting,value
"O=C(NCc1cc(C2=NOC(c3cc(Cl)c(F)c(Cl)c3)(C(F)(F)F)C2)ccc1F)C1CC(F)(F)C1 (stereo not shown) [Example 13, N-{5-[5-(3,5-dichloro-4-fluorophenyl)-5-(trifluoromethyl)-4,5-dihydroisoxazol-3-yl]-2-fluorobenzyl}-3,3-difluorocyclobutanecarboxamide]",ED^80 (efficacious dose 80%),[1],3 µg/mL
"O=C(NCc1cc(C2=NOC(c3cc(Cl)c(Cl)c(Cl)c3)(C(F)(F)F)C2)ccc1F)C1CC1 (stereo not shown) [Example 5, N-{2-fluoro-5-[5-(3,4,5-trichlorophenyl)-5-(trifluoromethyl)-4,5-dihydroisoxazol-3-yl]benzyl}cyclopropanecarboxamide]",ED^80 (efficacious dose 80%),[1],3 µg/mL
same,LD^90 (lethal dose 90%),[2],1 µg/mL
"CC(=O)NCc1cc(C2=NOC(c3cc(Cl)c(Cl)c(Cl)c3)(C(F)(F)F)C2)ccc1Br (stereo not shown) [Example 18, N-(2-bromo-5-(5-(3,4,5-trichlorophenyl)-5-(trifluoromethyl)-4,5-dihydroisoxazol-3-yl)benzyl)acetamide]",ED^80 (efficacious dose 80%),[1],10 µg/mL
same,LD^90 (lethal dose 90%),[2],1 µg/mL
"CC(=O)NCc1cc(C2=NOC(c3cc(Cl)c(Cl)c(Cl)c3)(C(F)(F)F)C2)ccc1F (stereo not shown) [Example 3, N-{5-[5-(3,4,5-trichlorophenyl)-5-(trifluoromethyl)-4,5-dihydroisoxazol-3-yl]-2-fluorobenzyl}acetamide]",ED^80 (efficacious dose 80%),[1],3 µg/mL
same,LD^90 (lethal dose 90%),[2],10 µg/mL
"O=C(CC1CC1)NCc1cc(C2=NOC(c3cc(Cl)c(Cl)c(Cl)c3)(C(F)(F)F)C2)ccc1F (stereo not shown) [Example 8, 2-cyclopropyl-N-{2-fluoro-5-[5-(3,4,5-trichlorophenyl)-5-(trifluoromethyl)-4,5-dihydroisoxazol-3-yl]benzyl}acetamide]",LD^90 (lethal dose 90%),[2],3 µg/mL
"CC(C)CC(=O)NCc1cc(C2=NOC(c3cc(Cl)c(Cl)c(Cl)c3)(C(F)(F)F)C2)ccc1F (stereo not shown) [Example 9, N-{2-fluoro-5-[5-(3,4,5-trichlorophenyl)-5-(trifluoromethyl)-4,5-dihydroisoxazol-3-yl]benzyl}-3-methylbutanamide]",LD^90 (lethal dose 90%),[2],3 µg/mL
"O=C(NCc1cc(C2=NOC(c3cc(Cl)c(Cl)c(Cl)c3)(C(F)(F)F)C2)ccc1F)C1CCC1 (stereo not shown) [Example 6, N-{2-fluoro-5-[5-(3,4,5-trichlorophenyl)-5-(trifluoromethyl)-4,5-dihydroisoxazol-3-yl]benzyl}cyclobutanecarboxamide]",ED^80 (efficacious dose 80%),[1],10 µg/mL
same,LD^90 (lethal dose 90%),[2],3 µg/mL
"CCNC(=O)CC(=O)NCc1cc(C2=NOC(c3cc(Cl)c(Cl)c(Cl)c3)(C(F)(F)F)C2)ccc1F (stereo not shown) [Example 1, N-ethyl-N′-{2-fluoro-5-[5-(3,4,5-trichloro-phenyl)-5-trifluoromethyl-4,5-dihydro-isoxazol-3-yl]-benzyl}-malonamide]",ED^100 (effective dose 100%),[3],10.0 μg/cm^2
"O=C(CC(=O)NCC1CC1)NCc1cc(C2=NOC(c3cc(Cl)c(Cl)c(Cl)c3)(C(F)(F)F)C2)ccc1F (stereo not shown) [Example 2, N-Cyclopropylmethyl-N′-{2-fluoro-5-[5-(3,4,5-trichloro-phenyl)-5-trifluoromethyl-4,5-dihydro-isoxazol-3-yl]-benzyl}-malonamide]",ED^100 (effective dose 100%),[3],10.0 μg/cm^2
"CC(=O)NCc1cc(C2=NOC(c3cc(Cl)c(F)c(Cl)c3)(C(F)(F)F)C2)ccc1Cl (stereo not shown) [Example 17, N-{2-chloro-5-[5-(3,5-dichloro-4-fluorophenyl)-5-(trifluoromethyl)-4,5-dihydroisoxazol-3-yl]benzyl}acetamide]",LD^90 (lethal dose 90%),[2],1 µg/mL
"O=C(NCc1cc(C2=NOC(c3cc(Cl)c(F)c(Cl)c3)(C(F)(F)F)C2)ccc1F)C1CC1 (stereo not shown) [Example 12, N-{5-[5-(3,5-dichloro-4-fluorophenyl)-5-(trifluoromethyl)-4,5-dihydroisoxazol-3-yl]-2-fluorobenzyl}cyclopropanecarboxamide]",ED^80 (efficacious dose 80%),[1],3 µg/mL
"CC(C)C(=O)NCc1cc(C2=NOC(c3cc(Cl)c(Cl)c(Cl)c3)(C(F)(F)F)C2)ccc1F (stereo not shown) [Example 4, N-{2-fluoro-5-[5-(3,4,5-trichlorophenyl)-5-(trifluoromethyl)-4,5-dihydroisoxazol-3-yl]benzyl}-2-methylpropanamide]",LD^90 (lethal dose 90%),[2],1 µg/mL
"CC(=O)NCc1cc(C2=NOC(c3cc(Cl)c(F)c(Cl)c3)(C(F)(F)F)C2)ccc1F (stereo not shown) [Example 11, N-{5-[5-(3,5-dichloro-4-fluorophenyl)-5-(trifluoromethyl)-4,5-dihydroisoxazol-3-yl]-2-fluorobenzyl}acetamide]",LD^90 (lethal dose 90%),[2],3 µg/mL
"CCC(=O)NCc1cc(C2=NOC(c3cc(Cl)c(Cl)c(Cl)c3)(C(F)(F)F)C2)ccc1F (stereo not shown) [Example 7, N-{2-fluoro-5-[5-(3,4,5-trichlorophenyl)-5-(trifluoromethyl)-4,5-dihydroisoxazol-3-yl]benzyl}propanamide]",ED^80 (efficacious dose 80%),[1],10 µg/mL
same,LD^90 (lethal dose 90%),[2],1 µg/mL
